From patent US10383905B2, “Extract of Cynara ssp. and uses thereof” (ABOCA S.P.A. SOCIETA' AGRICOLA, priority 2013, dated 2019)

Assays:
[1] = test system: MSTO211H and NCI-H2052; test: ATPlite vitality assay, extract in association with pemetrexed, MPM lines; assay type: cell-based, human; conditions: MPM cells, 72 h
Description: Cell lines MSTO211H and NCI-H2052 were used to evaluate the effects of the association of extract of Cynara scolymus+anti-tumour drug.
(§1) The assay shown in FIG. 10 was performed using ATPlite™ assay (Perkin Elmer) in accordance with the producer's instructions.
(§2) A solution of water for injectable solutions and ethanol at a concentration of 1:1 was used in the same volumes used for the treatments.
(§3) pemetrexed (Alimta, Lilly) diluted in accordance with the producer's instructions.
(§4) The concentrations of the assayed compound are plotted on the abscissa, whereas the cell vitality expressed in percentage is plotted on the ordinate.

[2] = test system: untransformed HMC cells; test: ATPlite vitality assay, extract in association with pemetrexed, HMC; assay type: cell-based, human; conditions: non-tumour HMC cells
Description: as §1, §2, §3, §4

[3] = test system: confluent prostatic adenocarcinoma cell line DU-145; test: WST-1 cell vitality assay, confluent DU-145; assay type: cell-based, human
Description: (§5) Cytotoxicity was assayed using the WST assay (WSTs=water soluble tetrazolium salts), and utilises the ability of mitochondrial dehydrogenases to separate the tetrazole ring from the yellow-coloured WST molecule (tetrazolium salt) to give an orange formazan salt. The amount of formazan produced following the treatment of the cells with the substances being tested is measured using spectrophotometry and is proportional to the number of living cells. WST-1 and in particular WST-8 (2-(2-methoxy-4-nitrophenyl)-3-(4-nitrophenyl)-5-(2,4-disulfophenyl)-2H-tetrazolium) are advantageous with respect to MTT because they reduce outside the cells, in combination with PMS as electron mediator, to produce water-soluble formazan.
6.2 WST-1 assay on cell line DU145 at 24 and 48 hours with 0-100-200-300-400-500-600 μg/ml of extract of Cynara scolymus (cynaropicrin=1.361%), which inhibits, in a time-dependent and dose-dependent manner, the vitality of the DU-145 cells.
6.3 WST-1 assay on cell line DU145 at 24 and 48 hours with cynaropicrin 0-10-20-30-40-50-60 μM inhibits, in a dose-dependent and time-dependent manner, the vitality of DU-145 cells.

[4] = test system: human prostate tumour cell line DU145; test: WST-1 vitality assay in association with chemotherapeutic agents; assay type: cell-based
Description: as §5
The assays were carried out in parallel with variable doses of cynaropicrin in place of the extract to compare the efficacy of the extract and that of cynaropicrin.

[5] = test system: GSH; test: Intracellular analyses of GSH; assay type: cell-based; conditions: 12.5, 25, 50 μM
Description: The intracellular concentration of GSH was evaluated by means of a colorimetric method. The cell extract, deproteinised by means of 10% trichloroacetic acid, was treated with dithio nitrobenzene (DTNB), and the quantity of TNB, which is released following the reaction with GSH, was evaluated by analysing the absorbance at 412 nm.

[6] = test system: STAT3; test: Glutathionylation of STAT3; assay type: cell-based; conditions: 12 microM and 25 μM
Description: STAT3 was immunoprecipitated by incubating the protein cell extract overnight with an anti-STAT3 antibody. The proteins obtained were separated by means of SDS-PAGE in non-reducing conditions and were transferred on PVDF membrane. The glutathionylated STAT3 was recognised using an anti-GSH antibody.

[7] = test system: STAT3; test: STAT3 phosphorylation after pre-treatment with glutathione ethylene ester; assay type: cell-based
[8] = target: T1, STAT3 (Homo sapiens, UniProt P40763); test: EMSA of STAT3 binding to DNA in KARPAS cells; assay type: cell-based; parameters: endogenous in cells; conditions: read-out: EC50 inhibition of the ability of STAT3 to bind to DNA
[9] = target: T1, STAT3; test: Western Blot of STAT3 phosphorylation in DU-145 cells; assay type: cell-based; parameters: The cell line DU145 expresses pStat3 in a constitutive manner; endogenous in cells; host or cells: DU-145 (human prostate carcinoma, ATCC HTB-81); conditions: read-out: EC50 inhibition of the phosphorylation of STAT3
Description: (§6) The cells were lysed in ice for 30 min in lysis buffer NP40 (50 mM Tris-HCl pH 7.4, 150 mM NaCl, 1% NP-40, 1 mM EGTA, 1 mM EDTA) complemented with inhibitors of protease and phosphatase (5 mM PMSF, 3 mM NaF, 1 mM DTT, 1 mM NaVO4). Equal amounts of total extracts of protein (30 μg) were broken down by means of denaturing electrophoresis (SDS-PAGE) in 8% polyacrylamide gel and transferred for 2 hours on nitrocellulose membrane. The membranes were blocked with a 5% solution of milk dissolved in TBS-Tween_20 0.05% for 1 hour and incubated with the specific primary antibodies. The following primary antibodies were used: anti-beta actin (A-2228, SIGMA), anti-pSTAT3 (Tyr-705) (sc8059, Santa Cruz) and anti-STAT3 (sc7179, Santa Cruz). The secondary antibodies were peroxidase-conjugated (Santa Cruz), and ECL reagents (Amersham, GE Healthcare. Piscataway, N.J., USA) were used for the chemiluminescence.
(§7) 2. The Extract of Cynara scolymus and Cynaropicrin Inhibit the Activation of STAT3 in DU-145 Cells and in KARPAS Cells:
(§8) 200 μg/ml of extract that contains 0.181% of cynaropricrin contain 1.2 μM of cynaropricrin.

[10] = target: T1, STAT3; test: EMSA of STAT3 binding to DNA in DU-145 cells; assay type: cell-based; parameters: The cell line DU145 expresses pStat3 in a constitutive manner; endogenous in cells; host or cells: DU-145 (human prostate carcinoma, ATCC HTB-81); conditions: read-out: EC50 inhibition of the ability of STAT3 to bind to DNA
[11] = target: T1, STAT3; test: Western Blot of STAT3 phosphorylation in KARPAS cells; assay type: cell-based; parameters: The cell line DU145 expresses pStat3 in a constitutive manner; endogenous in cells; host or cells: DU-145 (human prostate carcinoma, ATCC HTB-81); conditions: read-out: EC50 inhibition of the phosphorylation of STAT3
Description: as §6, §7, §8

T1 sequence (P40763 whole entry): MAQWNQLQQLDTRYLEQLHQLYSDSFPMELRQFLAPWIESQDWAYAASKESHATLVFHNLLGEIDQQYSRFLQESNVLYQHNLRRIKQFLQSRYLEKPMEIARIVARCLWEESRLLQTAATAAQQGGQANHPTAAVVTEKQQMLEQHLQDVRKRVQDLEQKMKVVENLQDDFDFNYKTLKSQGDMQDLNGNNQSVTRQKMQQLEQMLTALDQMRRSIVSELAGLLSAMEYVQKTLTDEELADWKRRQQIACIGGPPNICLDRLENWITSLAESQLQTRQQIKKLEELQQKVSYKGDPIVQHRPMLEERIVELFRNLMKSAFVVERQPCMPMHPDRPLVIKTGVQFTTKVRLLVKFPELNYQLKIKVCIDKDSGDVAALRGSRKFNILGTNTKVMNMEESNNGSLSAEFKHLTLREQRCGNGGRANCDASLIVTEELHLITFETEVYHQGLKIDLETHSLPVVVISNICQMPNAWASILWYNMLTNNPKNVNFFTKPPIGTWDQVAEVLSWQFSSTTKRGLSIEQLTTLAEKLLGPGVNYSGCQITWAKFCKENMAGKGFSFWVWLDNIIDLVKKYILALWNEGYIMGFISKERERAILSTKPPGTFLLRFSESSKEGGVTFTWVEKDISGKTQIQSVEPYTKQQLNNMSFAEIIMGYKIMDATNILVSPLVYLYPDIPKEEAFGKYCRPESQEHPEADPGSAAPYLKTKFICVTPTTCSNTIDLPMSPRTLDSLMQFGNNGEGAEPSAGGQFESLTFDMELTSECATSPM

SMILES	cell vitality, pemetrexed alone [1]	cell vitality, pemetrexed alone [2]	reduction of vitality ([3]; confluent DU-145, 50 μM for 48 hours)	cell vitality ([3]; confluent DU-145, cynaropicrin 0-70 μM, 24 or 48 hours)	molarity of cynaropicrin needed to reduce cell vitality below 20%, relative to that present in the artichoke extract ([4]; DU145, with cisplatinum 15 μg/ml)	molarity of cynaropicrin needed to reduce cell vitality below 20%, relative to that present in the artichoke extract ([4]; DU145, with doxorubicin 2 μg/ml)	intracellular concentration of GSH [5]	glutathionylation of STAT3 [6]	effect of restoration of GSH on inhibition of STAT3 phosphorylation [7]	EC50 [8] [µM]	EC50 [9] [µM]	EC50 [10] [µM]	EC50 [11] [µM]
Nc1nc2[nH]cc(CCc3ccc(C(=O)N[C@@H](CCC(=O)O)C(=O)O)cc3)c2c(=O)[nH]1 [PMTX, pemetrexed]	cytotoxic for the MPM cells	highly toxic for the non-tumour cells											
C=C(CO)C(=O)O[C@H]1CC(=C)[C@@H]2C[C@H](O)C(=C)[C@@H]2[C@H]2OC(=O)C(=C)[C@@H]21 [cynaropicrin]			approximately 90%	inhibits cell vitality in a time-dependent and dose-dependent manner	forty times greater	approximately twenty-five times greater	time-dependent and dose-dependent reduction of the intracellular concentration of GSH	determines the glutathionylation of STAT3	reverses the ability of cynaropicrin to inhibit the phosphorylation of STAT3	25	25	25	25
